Results taken from the Kinase Knowledgebase extract (Sharma et al. 2016).
pIC50: −log10 of the molar value.

target: CDK2 (human) (UniProt P24941); assay: Enzyme Assay

pIC50 | Compound
≥ 7.00 | CC(C)(C)c1cnc(CSc2cnc(NC(=O)Cc3ccc(OCCCCC(=O)NO)cc3)s2)o1
≥ 7.00 | CNC(=O)CCCCCOc1ccc(CC(=O)Nc2ncc(SCc3ncc(C(C)(C)C)o3)s2)cc1
≥ 7.00 | CC(C)(C)c1cnc(CSc2cnc(NC(=O)C3CCN(CCCC(=O)NO)CC3)s2)o1
≥ 7.00 | CC(C)(C)c1cnc(CSc2cnc(NC(=O)Cc3ccc(OCCCC(=O)NO)cc3)s2)o1
≥ 7.00 | CC(C)(C)c1cnc(CSc2cnc(NC(=O)CCCNCCC(=O)NO)s2)o1
≥ 7.00 | CC(C)(C)c1cnc(CSc2cnc(NC(=O)CCCCC(=O)NO)s2)o1
≥ 7.00 | CC(C)(C)c1cnc(CSc2cnc(NC(=O)C(C)(C)c3ccc(OCCCC(=O)NO)cc3)s2)o1
≥ 7.00 | CC(Sc1cnc(NC(=O)Cc2ccc(OCCCC(=O)NO)cc2)s1)c1ncc(C(C)(C)C)o1 (configuration not stated)
≥ 7.00 | CC(C)(C)c1cnc(CSc2cnc(NC(=O)CCCNCCCCCCC(=O)NO)s2)o1
≥ 7.00 | CC(C)c1cnc(CSc2cnc(NC(=O)Cc3ccc(OCCCCCCC(=O)NO)cc3)s2)o1
≥ 7.00 | CC(C)(C)c1cnc(CSc2cnc(NC(=O)Nc3ccc(OCCCC(=O)NO)cc3)s2)o1
≥ 7.00 | CC(C)(C)c1cnc(CSc2cnc(NC(=O)c3ccc(OCCCC(=O)NO)cc3)s2)o1
≥ 7.00 | CC(C)(C)c1cnc(CSc2cnc(NC(=O)Oc3ccc(OCCCC(=O)NO)cc3)s2)o1
≥ 7.00 | CC(C)(C)c1cnc(CSc2cnc(NC(=O)c3cccc(/C=C/C(=O)NO)c3)s2)o1
≥ 7.00 | CC(C)(C)c1cnc(CSc2cnc(NC(=O)C3CCN(c4ncc(C(=O)NO)cn4)CC3)s2)o1
≥ 7.00 | CC(C)(C)c1cnc(CSc2cnc(NC(=O)C3CCN(CCCCCCC(=O)NO)CC3)s2)o1
≥ 7.00 | CC(C)(C)c1cnc(CSc2cnc(NC(=O)c3ccc(OCCCCCC(=O)NO)cc3)s2)o1
≥ 7.00 | CC(C(=O)Nc1ncc(SCc2ncc(C(C)(C)C)o2)s1)c1ccc(OCCCC(=O)NO)cc1 (configuration not stated)
≥ 7.00 | CC(C)(C)c1cnc(CSc2cnc(NC(=O)C3CCN(CCCCCC(=O)NO)CC3)s2)o1
≥ 7.00 | CC(C)(C)c1cnc(CSc2cnc(NC(=O)c3ccc(OCCCCCCC(=O)NO)cc3)s2)o1
≥ 7.00 | CC(C)(C)c1cnc(CSc2cnc(NC(=O)CCCC(=O)NO)s2)o1
≥ 7.00 | CC(C)(C)c1cnc(CSc2cnc(NC(=O)Cc3ccc(OCCC(=O)NO)cc3)s2)o1
≥ 7.00 | CC(C)(C)c1cnc(CSc2cnc(NC(=O)c3ccc(/C=C/C(=O)NO)cc3)s2)o1
≥ 7.00 | CC(C)(C)c1cnc(CSc2cnc(NC(=O)c3ccc(OCCCCC(=O)NO)cc3)s2)o1
≥ 7.00 | CC(C)(C)c1cnc(CSc2cnc(NCC3CCN(c4ncc(C(=O)NO)cn4)CC3)s2)o1
≥ 7.00 | CC(C)(C)c1cnc(CSc2cnc(NC(=O)CCCCCCC(=O)NO)s2)o1
≥ 7.00 | CC(C)(C)c1cnc(CSc2cnc(NC(=O)C3CCN(CCCCC(=O)NO)CC3)s2)o1
